Reference: US8207177B2, “Inhibitors of E1 activating enzymes” (Millennium Pharmaceuticals, Inc., priority 2006, dated 2012)
pIC50: −log10 of the molar value.

What follows are compounds tested against T1, recombinant human NAE enzyme (Homo sapiens, UniProt Q8TBC4) (assay: Nedd8-Activating Enzyme (NAE) HTRF Assay). Settings: threshold statement: less than or equal to 100 nM; 20 μM ATP, 90 minutes at 24° C.
T1 construct: His (N); made in house; host or cells: Sf9 insect cells (baculovirus, Bac-to-Bac), purified on Ni-NTA
T1 sequence (Q8TBC4 1-463): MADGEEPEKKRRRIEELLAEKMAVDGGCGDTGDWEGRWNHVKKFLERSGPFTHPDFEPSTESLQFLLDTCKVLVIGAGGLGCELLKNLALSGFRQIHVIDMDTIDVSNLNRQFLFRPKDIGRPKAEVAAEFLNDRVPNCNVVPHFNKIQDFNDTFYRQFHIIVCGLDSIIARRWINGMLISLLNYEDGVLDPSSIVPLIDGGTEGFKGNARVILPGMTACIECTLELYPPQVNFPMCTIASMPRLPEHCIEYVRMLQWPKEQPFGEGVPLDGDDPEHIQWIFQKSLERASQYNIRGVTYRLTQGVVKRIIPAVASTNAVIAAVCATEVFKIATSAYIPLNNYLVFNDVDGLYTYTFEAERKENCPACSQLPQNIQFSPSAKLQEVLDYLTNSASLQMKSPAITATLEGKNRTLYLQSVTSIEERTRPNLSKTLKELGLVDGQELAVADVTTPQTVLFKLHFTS
T1 sequence (Q13564 1-534 partner): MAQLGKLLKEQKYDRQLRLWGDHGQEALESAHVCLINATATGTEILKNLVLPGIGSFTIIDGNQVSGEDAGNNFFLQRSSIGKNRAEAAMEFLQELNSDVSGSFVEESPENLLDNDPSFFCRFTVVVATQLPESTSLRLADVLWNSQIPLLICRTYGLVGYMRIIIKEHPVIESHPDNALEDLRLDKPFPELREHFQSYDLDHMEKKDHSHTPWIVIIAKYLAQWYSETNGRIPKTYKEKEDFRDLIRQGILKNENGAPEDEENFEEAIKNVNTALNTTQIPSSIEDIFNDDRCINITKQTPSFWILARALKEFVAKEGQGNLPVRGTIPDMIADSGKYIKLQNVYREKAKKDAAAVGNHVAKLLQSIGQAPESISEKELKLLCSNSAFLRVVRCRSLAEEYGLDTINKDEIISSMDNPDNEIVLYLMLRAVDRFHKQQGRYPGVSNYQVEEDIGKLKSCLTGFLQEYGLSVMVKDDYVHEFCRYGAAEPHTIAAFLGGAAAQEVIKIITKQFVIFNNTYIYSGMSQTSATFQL
Assay type: biochemical
Summary of the method: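 Sf9-expressed NAEα/His-NAEβ complex (0.28 nM) with 0.075 μM Nedd8-Flag, 0.01 μM Ubc12-GST, 20 μM ATP in 50 mM HEPES pH 7.5, 5 mM MgCl2, 250 μM GSH, 0.05% BSA; 90 min at 24 °C. EDTA stop, then Eu-cryptate anti-FLAG/XL-APC anti-GST detection for 3 h at 24 °C, HTRF read-out.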

pIC50, ≥ 7.00:
NS(=O)(=O)OC[C@@H]1C[C@@H](n2ccc3c(N[C@H]4CCc5c(Br)cccc54)ncnc32)C[C@@H]1O [Compound I-65, [(1S,2S,4R)-4-(4-{[(1S)-4-bromo-2,3-dihydro-1H-inden-1-yl]amino}-7H-pyrrolo[2,3-d]pyrimidin-7-yl)-2-hydroxycyclopentyl]methyl sulfamate]
NS(=O)(=O)OC[C@@H]1C[C@@H](n2ccc3c(N[C@H]4CCc5cccc(F)c54)ncnc32)C[C@@H]1O [Compound I-66, [(1S,2S,4R)-4-(4-{[(1S)-7-fluoro-2,3-dihydro-1H-inden-1-yl]amino}-7H-pyrrolo[2,3-d]pyrimidin-7-yl)-2-hydroxycyclopentyl]methyl sulfamate]
CC1(C)C[C@H](Nc2ncnc3c2ccn3[C@@H]2C[C@@H](COS(N)(=O)=O)[C@@H](O)C2)c2ccc(Cl)cc21 [Compound I-67, [(1S,2S,4R)-4-(4-{[(1S)-5-chloro-3,3-dimethyl-2,3-dihydro-1H-inden-1-yl]amino)-7H-pyrrolo[2,3-d]pyrimidin-7-yl)-2-hydroxycyclopentyl]methyl sulfamate]
NS(=O)(=O)OC[C@@H]1C[C@@H](n2cc(F)c3c(N[C@H]4CCc5ccccc54)ncnc32)C[C@@H]1O [Compound I-68, ((1S,2S,4R)-4-{4-[(1S)-2,3-dihydro-1H-inden-1-ylamino]-5-fluoro-7H-pyrrolo[2,3-d]pyrimidin-7-yl}-2-hydroxycyclopentyl)methyl sulfamate]
CO[C@H]1Cc2ccccc2[C@H]1Nc1ncnc2c1c(F)cn2[C@@H]1C[C@@H](COS(N)(=O)=O)[C@@H](O)C1 [Compound I-69, [(1S,2S,4R)-4-(5-fluoro-4-{[(1R,2S)-2-methoxy-2,3-dihydro-1H-inden-1-yl]amino}-7H-pyrrolo[2,3-d]pyrimidin-7-yl)-2-hydroxycyclopentyl]methyl sulfamate]
CCO[C@H]1Cc2ccccc2[C@H]1Nc1ncnc2c1ccn2[C@@H]1C[C@@H](COS(N)(=O)=O)[C@@H](O)C1 [Compound I-70, [(1S,2S,4R)-4-(4-{[(1R,2S)-2-ethoxy-2,3-dihydro-1H-inden-1-yl]amino}-7H-pyrrolo[2,3-d]pyrimidin-7-yl)-2-hydroxycyclopentyl]methyl sulfamate]
NS(=O)(=O)OC[C@@H]1C[C@@H](n2ccc3c(N[C@@H]4c5ccccc5C[C@@H]4O)ncnc32)C[C@@H]1O [Compound I-71, [(1S,2S,4R)-2-hydroxy-4-(4-{[(1R,2S)-2-hydroxy-2,3-dihydro-1H-inden-1-yl]amino}-7H-pyrrolo[2,3-d]pyrimidin-7-yl)cyclopentyl]methyl sulfamate]
CO[C@@H]1Cc2ccccc2[C@H]1Nc1ncnc2c1ccn2[C@@H]1C[C@@H](COS(N)(=O)=O)[C@@H](O)C1 [Compound I-72, [(1S,2S,4R)-2-hydroxy-4-(4-{[(1R,2R)-2-methoxy-2,3-dihydro-1H-inden-1-yl]amino}-7H-pyrrolo[2,3-d]pyrimidin-7-yl)cyclopentyl]methyl sulfamate]
NS(=O)(=O)/C=C/[C@@H]1C[C@@H](n2ccc3c(N[C@H]4CCc5ccccc54)ncnc32)C[C@@H]1O [Compound I-73, (E)-2-((1S,2S,4R)-4-{4-[(1S)-2,3-dihydro-1H-inden-1-ylamino]-7H-pyrrolo[2,3-d]pyrimidin-7-yl}-2-hydroxycyclopentyl)ethylenesulfonamide]
CO[C@H]1Cc2ccccc2[C@H]1Nc1ncnc2c1ccn2[C@@H]1C[C@@H](CNS(N)(=O)=O)[C@@H](O)C1 [Compound I-74, N-{[(1S,2S,4R)-2-hydroxy-4-(4-{[(1R,2S)-2-methoxy-2,3-dihydro-1H-inden-1-yl]amino}-7H-pyrrolo[2,3-d]pyrimidin-7-yl)cyclopentyl]methyl}sulfamide]
NS(=O)(=O)OCC[C@@H]1C[C@@H](n2ccc3c(N[C@H]4CCc5ccccc54)ncnc32)C[C@@H]1O [Compound I-76, 2-((1S,2S,4R)-4-{4-[(1S)-2,3-dihydro-1H-inden-1-ylamino]-7H-pyrrolo[2,3-d]pyrimidin-7-yl}-2-hydroxycyclopentyl)ethyl sulfamate]
COC[C@@H]1Cc2ccccc2[C@@H]1Nc1ncnc2c1ccn2[C@@H]1C[C@@H](COS(N)(=O)=O)[C@@H](O)C1 [Compound I-79, [(1S,2S,4R)-2-hydroxy-4-(4-{[(1R,2R)-2-(methoxymethyl)-2,3-dihydro-1H-inden-1-yl]amino}-7H-pyrrolo[2,3-d]pyrimidin-7-yl)cyclopentyl]methyl sulfamate]
C[C@@H]1Cc2ccccc2[C@@H]1Nc1ncnc2c1ccn2[C@@H]1C[C@@H](COS(N)(=O)=O)[C@@H](O)C1 [Compound I-81, [(1S,2S,4R)-2-hydroxy-4-(4-{[(1R,2R)-2-methyl-2,3-dihydro-1H-inden-1-yl]amino)-7H-pyrrolo[2,3-d]pyrimidin-7-yl)cyclopentyl]methyl sulfamate]
C[C@H]1Cc2ccccc2[C@H]1Nc1ncnc2c1ccn2[C@@H]1C[C@@H](COS(N)(=O)=O)[C@@H](O)C1 [Compound I-82, [(1S,2S,4R)-2-hydroxy-4-(4-{[(1S,2S)-2-methyl-2,3-dihydro-1H-inden-1-yl]amino}-7H-pyrrolo[2,3-d]pyrimidin-7-yl)cyclopentyl]methyl sulfamate]
CC[C@@H]1Cc2ccccc2[C@@H]1Nc1ncnc2c1ccn2[C@@H]1C[C@@H](COS(N)(=O)=O)[C@@H](O)C1 [Compound I-83, [(1S,2S,4R)-4-(4-{[(1R,2R)-2-ethyl-2,3-dihydro-1H-inden-1-yl]amino}-7H-pyrrolo[2,3-d]pyrimidin-7-yl)-2-hydroxycyclopentyl]methyl sulfamate]
CC[C@H]1Cc2ccccc2[C@H]1Nc1ncnc2c1ccn2[C@@H]1C[C@@H](COS(N)(=O)=O)[C@@H](O)C1 [Compound I-84, [(1S,2S,4R)-4-(4-{[(1S,2S)-2-ethyl-2,3-dihydro-1H-inden-1-yl]amino}-7H-pyrrolo[2,3-d]pyrimidin-7-yl)-2-hydroxycyclopentyl]methyl sulfamate]
CO[C@H]1CCc2ccccc2[C@H]1Nc1ncnc2c1ccn2[C@@H]1C[C@@H](COS(N)(=O)=O)[C@@H](O)C1 [Compound I-85, [(1S,2S,4R)-2-hydroxy-4-(4-{[(1R,2S)-2-methoxy-1,2,3,4-tetrahydronaphthalen-1-yl]amino}-7H-pyrrolo[2,3-d]pyrimidin-7-yl)cyclopentyl]methyl sulfamate]
